Data from patent publication US20240174622A1, “COMPOUND AND RADIOACTIVE LABELING COMPOUND” (NIHON MEDI-PHYSICS CO., LTD., priority 2021, published 2024).

Tests used:
[1] = tested on: PC-3 tumor; test: SPECT/CT, PC-3 tumor in mouse transplanted with LNCaP and PC-3; format: in vivo; details: 24 (and 48) hours after administration
Description: LNCaP cells (1.0×10^7 cells/mouse) were suspended in a mixture of PBS and Matrigel (1:1, 150 μL) and subcutaneously transplanted to the right shoulder of a male CB17/IcrJcl-Prkdc^scid mouse kept in the same manner as in Example 1-1 under isoflurane anesthesia. In addition, a suspension of PC-3 cells (1.0×10^7 cells/mouse) in a mixture of PBS and Matrigel (1:1, 150 μL) was subcutaneously transplanted into the left shoulder of the same mouse under isoflurane anesthesia. Thereafter, the mouse was kept for 40 to 60 days. In this way, a tumor-transplanted mouse in which LNCaP cells and PC-3 cells were simultaneously transplanted into one mouse was obtained. The tumor-transplanted mouse was then administered saline solution (2.7 MBq, 100 μL) of [^111In]In-PtDA from the tail vein. SPECT/CT was performed 24 and 48 hours after administration with FX3300 pre-clinical imaging system, which is manufactured by Gamma Medica-Ideas. Imaging was performed using a pinhole collimator with a diameter of 1.0 mm at a rotation radius of 35 mm, a projection time of 70 seconds, and the number of projections of 32 times under isoflurane anesthesia. After SPECT, CT (Tube voltage: 60 kV, Tube current: 350 μA) was performed. Image reconstruction was performed on the projection data of SPECT through three-dimensional ordered subset expectation maximization method (8 subsets, 5 iterations). […]

[2] = tested on: LNCaP tumor; test: SPECT/CT using LNCaP tumor-transplanted mouse; format: in vivo
Description: (§1) LNCaP tumor-implanted mice prepared by the method described above were administered saline solutions (1.9 to 3.0 MBq, 150 μL) of [^111In]In-PSMA-DA1 or [^111In]In-PSMA-DB from the tail vein. SPECT/CT was performed 24 and 48 hours after administration with FX3300 pre-clinical imaging system, which is manufactured by Gamma Medica-Ideas. Imaging was performed using a pinhole collimator with a diameter of 1.0 mm at a rotation radius of 35 mm, a projection time of 70 seconds, and the number of projections of 32 times under isoflurane anesthesia. After SPECT, CT (Tube voltage: 60 kV, Tube current: 350 μA) was performed. Image reconstruction was performed on the projection data of SPECT through three-dimensional ordered subset expectation maximization method (8 subsets, 5 iterations).
In the figure, the part indicated by the arrow is the location of the tumor, and the part indicated by the circle is the location of the kidney. The higher the SUV, the higher the radioactivity accumulation. […]
as §1, with “SPECT/CT” for “LNCaP tumor-implanted mice prepared by the method described above were administered saline solutions (1.9 to 3.0 MBq, 150 μL) of [^111In]In-PSMA-DA1 or [^111In]In-PSMA-DB from the tail vein. SPECT/CT”, “24, 48,” for “24”, “96” for “48”

[3] = Evaluation of distribution coefficient (1-octanol/PBS); format: physicochemical; details: 1-octanol / PBS pH 7.4
Description: [^111In]In-PtDA (111 kBq) was added to a mixture of PBS (pH 7.4, 3 mL) and 1-octanol (3 mL), and the mixture was dispersed by vortexing for 2 minutes and then centrifuged at 4000×g for 5 minutes. 1 mL was recovered respectively from the 1-octanol layer and the PBS layer, and the radioactivity of each layer was measured with a gamma counter (n=3).
As the calculation formula, “(Distribution coefficient)=Log10[(radioactivity of 1-octanol layer [kBq])/(radioactivity of PBS layer [kBq])]” was used.

[4] = Evaluation of stability in plasma; format: in vitro ADME; details: 37° C., 24 hours
Description: A saline (20 μL) solution of [^111In]In-PSMA-DA1 (370 kBq) or [^90Y]Y-PSMA-DA1 (3.7 MBq) was added to mouse plasma (200 μL), and the mixture was allowed to stand at 37° C. for 24 hours (n=3). Then, MeCN (200 μL) was added, and the mixture was centrifuged at 10,000×g for 5 minutes. The supernatant was filtered, and the filtrate was analyzed by reverse phase HPLC under the following conditions.
(Analytical conditions: Cosmosil 5C18-PAQ column (4.6×250 mm); mobile phase: MeCN/H2O/TFA [20/80/0.1 (0 min) to 50/50/0.1 (30 min)]; flow rate: 1 mL/min.)
A saline (20 μL) solution of [^111In]In-PtDA (259 kBq) was added to mouse plasma (200 μL), and the mixture was allowed to stand at 37° C. for 24 hours (n=3). MeCN (400 μL) was added thereto, and the mixture was centrifuged at 10,000×g for 5 minutes. The supernatant was filtered, and the filtrate was analyzed by reverse phase HPLC under the following conditions.
Analytical conditions: Cosmosil 5C18-AR-II column (4.6×150 mm); mobile phase: MeCN/H2O/TFA [10/90/0.1 (0 min) to 70/30/0.1 (30 min)]; flow rate: 1 mL/min.

[5] = 24 (and 48) hours after administration

SMILES	radioactivity signal in the PC-3 tumor in SPECT/CT [1]	radioactivity accumulation at the LNCaP tumor in SPECT/CT [2, 5]	radioactivity accumulation at the kidney in SPECT/CT [2, 5]	radioactivity accumulation at the kidney in SPECT/CT ([2]; 96 hours after administration)	Log P (distribution coefficient) [3]	stably present in mouse plasma [4] [%]
O=C([O-])CN(Cc1cccc(C(=O)[O-])n1)C[C@H](Cc1ccc(NC(=O)[C@H](CCCCNC(=O)CCC(=O)NCCCC[C@H](NC(=O)N[C@@H](CCC(=O)O)C(=O)O)C(=O)O)NC(=O)CCCc2ccc(I)cc2)cc1)N(CC(=O)[O-])Cc1cccc(C(=O)[O-])n1.[111In+3] [[^111In]In-Octapa-2]	hardly observed	high radioactivity accumulation	also observed			
O=C([O-])CN1CCN(C(CCC(=O)NCCCC[C@H](NC(=O)N[C@@H](CCC(=O)O)C(=O)O)C(=O)O)C(=O)[O-])CCN(CC(=O)[O-])CCN(C(CCC(=O)N[C@@H](CCCCNC(=O)CCCc2ccc(I)cc2)C(=O)O)C(=O)[O-])CC1.[111In+3] (stereo partly shown) [[^111In]In-PSMA-DA1]		significant radioactivity accumulation	High radioactivity accumulation			
O=C([O-])CN1CCN(C(CCC(=O)NCCCC[C@H](NC(=O)N[C@@H](CCC(=O)O)C(=O)O)C(=O)O)C(=O)[O-])CCN(CC(=O)[O-])CCN(C(CCC(=O)Nc2ccccc2)C(=O)[O-])CC1.[111In+3] (stereo partly shown) [[^111In]In-PSMA-DB, reference compound]		lower than at the kidney				
O=C(O)CC[C@H](NC(=O)N[C@@H](CCCCNC(=O)[C@H](Cc1ccc2ccccc2c1)NC(=O)[C@H]1CC[C@H](CNC(=O)CCC(C(=O)O)N2CCN(CC(=O)O)CCN(C(CCC(=O)N[C@@H](CCCCNC(=O)CCCc3ccc(I)cc3)C(=O)O)C(=O)O)CCN(CC(=O)O)CC2)CC1)C(=O)O)C(=O)O (stereo partly shown) [[^111In]In-PSMA-NAT-DA1, metal not drawn]		significant radioactivity accumulation	also observed	hardly observed		
O=C([O-])CN1CCN(C(CCC(=O)NCCC(=O)N2Cc3ccccc3-c3c(nnn3CCOCCOCCOCCOCCC(=O)NCCCC[C@H](NC(=O)N[C@@H](CCC(=O)O)C(=O)O)C(=O)O)-c3ccccc32)C(=O)[O-])CCN(CC(=O)[O-])CCN(C(CCC(=O)N[C@@H](CCCCNC(=O)CCCc2ccc(I)cc2)C(=O)O)C(=O)[O-])CC1.[111In+3] (stereo partly shown) [[^111In]In-PtDA]	almost no radioactive signal	high radioactivity accumulation			−3.08±0.02	≥ 95
